US8518710B2, “Photon reducing agents for fluorescence assays” (Life Technologies Corporation, priority 1997, dated 2013)

Assay: Absorption maxima of dyes (Table 1)
Type: physicochemical

Row | Absorption maxima of dyes [nm] | Compound
1 | 513 | Acid Red 37
2 | 635 | CCN(CC)c1ccc(C(=C2C=CC(=[N+](CC)CC)C=C2)c2cc(O)c(S(=O)(=O)O)cc2S(=O)(=O)O)cc1 [Patent Blue]
3 | 425 | O=C([O-])C1=NN(c2ccc(S(=O)(=O)[O-])cc2)C(=O)C1N=Nc1ccc(S(=O)(=O)[O-])cc1.[Na+].[Na+].[Na+] (centres unmarked) [Tartrazine]
4 | 546 | Acid Fuchsin
5 | 607 | Cc1cc(-c2ccc(/N=N/c3c(S(=O)(=O)O)cc4cc(S(=O)(=O)O)cc(N)c4c3O)c(C)c2)ccc1/N=N/c1c(S(=O)(=O)O)cc2cc(S(=O)(=O)O)cc(N)c2c1O [Trypan Blue]
